In patent US7601683B2, “Protein conformational isomers, methods of making, methods for using, compositions comprising and products made therewith” (Board of Regents of the University of Texas System, priority 2001, dated 2009):
Where two headings read alike, the source gives them in different places.

Target: tick anticoagulant peptide (TAP) (Ornithodoros moubata, UniProt P17726)
Sequence (P17726 whole entry): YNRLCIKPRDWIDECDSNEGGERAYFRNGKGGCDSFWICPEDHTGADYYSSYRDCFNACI

[Cl-].[Na+] [NaCl]
reduction of the extent of denaturation of TAP by 8M urea (in the presence of 0.5 M NaCl): 23% | reduction of the extent of denaturation of TAP by 8M urea (in the presence of 1M NaCl): 50% | reversal of the structure of denatured TAP (in the presence of urea, after addition of the protein stabilizer (FIG. 7 column 3)): converts back to the native structure
